Assay results published in patent US20250049798A1, “WEE1 PROTEIN KINASE DEGRADATION AGENT AND USE THEREOF” (HANGZHOU GLUBIO PHARMACEUTICAL CO. LTD., priority 2021, published 2025).
pIC50: −log10 of the molar value. Read-outs that look alike come from different tables or passages of the source.

What was measured:
[1] = biological target: HiBiT tagged Wee1 (Homo sapiens, UniProt P30291); assay: Wee1 protein degradation assay (HiBiT assay); assay type: cell-based; details: engineered HT-1080 cells, 20 hours; for Dmax: maximum percentage of Wee1 degradation, read-out: HiBiT Wee1: Dmax
[2] = system: NCI-H1048 cells; assay: NCI-H1048 cell proliferation assay (CTG assay); assay type: cell-based; details: 120 hours, read-out: CTG cellular assay_H1048: IC50
In short: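 NCI-H1048 small cell lung cancer cells (RPMI-1640, 10% FBS) were exposed to 10-point half-log compound dilutions from 10 μM to 0.316 nM for 120 h at 37° C., 5% CO2. Viability was read by CellTiter-Glo luminescence and normalized to DMSO as percent of control. EC50 and DC50 were fitted with a four-parameter logistic model.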

[3] = Pharmacokinetic study in mice (IV and PO); assay type: in vivo; details: male CD1 mice; for F: PO (10 mg/kg) vs IV (2 mg/kg); for AUC(0-inf) / clearance / half-life / Cmax: mouse, plasma; for half-life: read-out: T½ (converted)
Method: Objective: the objective of this study was to determine the pharmacokinetics of test compound following intravenous (IV) and oral (PO) administration to male CD1 mice.
Materials: Male CD1 mouse (20-30 g, 6-8 weeks, Zhejiang Vital River Laboratory Animal Technology Co., Ltd.).
The CD1 mice were administered with the test article intravenously via tail vein at 2 mg/kg or orally at 10 mg/kg. The animals had free access to food and water. After dose administration, blood was collected from the dorsal metatarsal vein at 5 min (0.0833 h, IV only), 15 min (0.25 h), 30 min (0.5 h), 60 min (1 h), 2 h, 4 h, 6 h, 8 h and 24 h. Blood samples were placed in an anticoagulant tube with EDTA-K2, mixed adequately and centrifuged at 4° C., 4000 g for 5 minutes to get the plasma. The plasma samples were stored at −75±15° C. until analyzed by LC-MS/MS. The PK parameters were calculated using non-compartmental model by Phoenix WinNonlin 6.1 (Linear/log trapezoidal).

Chain of HiBiT tagged Wee1 (P30291 whole entry): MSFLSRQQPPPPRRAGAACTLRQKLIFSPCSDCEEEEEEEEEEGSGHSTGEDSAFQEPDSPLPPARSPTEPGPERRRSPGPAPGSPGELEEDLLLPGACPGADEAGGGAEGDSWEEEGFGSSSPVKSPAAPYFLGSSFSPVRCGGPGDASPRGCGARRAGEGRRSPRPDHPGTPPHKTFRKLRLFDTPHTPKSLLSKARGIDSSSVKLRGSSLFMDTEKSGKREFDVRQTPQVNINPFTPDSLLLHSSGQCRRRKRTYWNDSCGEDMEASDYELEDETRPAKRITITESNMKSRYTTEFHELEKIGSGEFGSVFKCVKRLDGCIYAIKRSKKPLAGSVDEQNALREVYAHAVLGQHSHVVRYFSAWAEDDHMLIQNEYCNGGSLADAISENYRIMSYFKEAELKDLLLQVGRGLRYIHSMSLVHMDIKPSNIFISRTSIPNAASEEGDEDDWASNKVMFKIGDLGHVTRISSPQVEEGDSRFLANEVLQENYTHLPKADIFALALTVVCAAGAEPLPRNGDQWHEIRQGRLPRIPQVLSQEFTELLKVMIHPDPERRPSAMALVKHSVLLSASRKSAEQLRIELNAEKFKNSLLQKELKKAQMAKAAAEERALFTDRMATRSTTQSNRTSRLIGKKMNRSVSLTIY

C=CCn1c(=O)c2cnc(Nc3ccc(N4CCC(CN5CCC(c6ccc(NC7CCC(=O)NC7=O)cc6)CC5)CC4)cc3)nc2n1-c1cccc(C(C)(C)O)n1 (stereo not shown) [Compound 72]
DC50 [1]: < 100 nM
Dmax [1]: > 75%
pIC50 ([2]; Homo sapiens): ≥ 7.60
F [3]: 80.2%
AUC(0-inf) ([3]; IV (2 mg/kg)): 1130 ng·h/mL
clearance ([3]; IV (2 mg/kg)): 29.5 mL/min/kg
half-life ([3]; IV (2 mg/kg)): 2.81 h
AUC(0-inf) ([3]; PO (10 mg/kg)): 4530 ng·h/mL
Cmax ([3]; PO (10 mg/kg)): 550 ng/mL
half-life ([3]; PO (10 mg/kg)): 2.85 h

C=CCn1c(=O)c2cnc(Nc3ccc(N4CCC(CN5CCN(c6ccc(NC7CCC(=O)NC7=O)cc6F)CC5)CC4)cc3)nc2n1-c1cccc(C(C)(C)O)n1 (stereo not shown) [Compound 71]
DC50 [1]: < 100 nM
Dmax [1]: > 75%
pIC50 ([2]; Homo sapiens): ≥ 7.60
F [3]: 75.4%
AUC(0-inf) ([3]; IV (2 mg/kg)): 6730 ng·h/mL
clearance ([3]; IV (2 mg/kg)): 4.95 mL/min/kg
half-life ([3]; IV (2 mg/kg)): 2.79 h
AUC(0-inf) ([3]; PO (10 mg/kg)): 25400 ng·h/mL
Cmax ([3]; PO (10 mg/kg)): 2730 ng/mL
half-life ([3]; PO (10 mg/kg)): 3 h

C=CCn1c(=O)c2cnc(Nc3ccc(N4CCN(C5CCN(c6ccc(NC7CCC(=O)NC7=O)cc6F)CC5)CC4)cc3)nc2n1-c1cccc(C(C)(C)O)n1 (stereo not shown) [Compound 93]
DC50 [1]: < 100 nM
Dmax [1]: > 75%
pIC50 ([2]; Homo sapiens): ≥ 7.60

C=CCn1c(=O)c2cnc(Nc3ccc(N4CCC(N5CCC(c6ccc(NC7CCC(=O)NC7=O)cc6F)CC5)CC4)cc3)nc2n1-c1cccc(C(C)(C)O)n1 (stereo not shown) [Compound 82]
DC50 [1]: < 100 nM
Dmax [1]: > 75%
pIC50 ([2]; Homo sapiens): ≥ 7.60

C=CCn1c(=O)c2cnc(Nc3ccc(N4CCC(CN5CCC(c6ccc(NC7CCC(=O)NC7=O)cc6C(F)(F)F)CC5)CC4)cc3)nc2n1-c1cccc(C(C)(C)O)n1 (stereo not shown) [Compound 80]
DC50 [1]: < 100 nM
Dmax [1]: > 75%
pIC50 ([2]; Homo sapiens): ≥ 7.60

C=CCn1c(=O)c2cnc(Nc3ccc(N4CCC(CN5CCN(c6ccc7c(C8CCC(=O)NC8=O)nn(C)c7c6)CC5)CC4)cc3)nc2n1-c1cccc(C(C)(C)O)n1 (stereo not shown) [Compound 106]
DC50 [1]: < 100 nM
Dmax [1]: > 75%
pIC50 ([2]; Homo sapiens): ≥ 7.60

Cc1cc(Nc2ncc3c(n2)N(C)CN(c2c(Cl)cccc2Cl)C3=O)ccc1C1CCN(CC2CCN(c3ccc4c(c3)C(=O)N(C3CCC(=O)NC3=O)C4=O)CC2)CC1 (stereo not shown) [Compound 16]
DC50 [1]: > 1000 nM
Dmax [1]: < 50%
pIC50 ([2]; Homo sapiens): < 7.00

C=CCn1c(=O)c2cnc(Nc3ccc(N4CCC(CN5CCN(c6ccc(NC7CCC(=O)NC7=O)cc6F)CC5)CC4)cc3)nc2n1-c1ccc2c(n1)[C@@](C)(O)CC2 (single isomer, unassigned) [Compound 121]
DC50 [1]: < 100 nM
Dmax [1]: > 75%
pIC50 ([2]; Homo sapiens): ≥ 7.60

C=CCn1c(=O)c2cnc(Nc3ccc(N4CCN(CC5(F)CCN(c6ccc(NC7CCC(=O)NC7=O)cc6F)CC5)CC4)cc3)nc2n1-c1ccc2c(n1)[C@@](O)(CC)CC2 (stereo partly shown) [Compound 166]
DC50 [1]: < 100 nM
Dmax [1]: > 75%
pIC50 ([2]; Homo sapiens): 7.00 to 7.60

CC(C)n1c(=O)c2cnc(Nc3ccc(N4CCN(CC5CCN(c6ccc(NC7CCC(=O)NC7=O)cc6F)CC5)CC4)cc3)nc2n1-c1cccc(C(C)(C)F)n1 (stereo not shown) [Compound 199]
DC50 [1]: < 100 nM
Dmax [1]: > 75%
pIC50 ([2]; Homo sapiens): 7.00 to 7.60

C=CCn1c(=O)c2cnc(Nc3ccc(N4CCC(N5CCN(c6ccc(NC7CCC(=O)NC7=O)cc6F)CC5)CC4)cc3)nc2n1-c1cccc(C(C)(C)O)n1 (stereo not shown) [Compound 67]
DC50 [1]: < 100 nM
Dmax [1]: > 75%
pIC50 ([2]; Homo sapiens): ≥ 7.60

O=C1CCC(N2C(=O)c3cccc(NCCCN4CCN(c5ccc(Nc6ncc7c(=O)n(-c8c(Cl)cccc8Cl)c8nccn8c7n6)cc5)CC4)c3C2=O)C(=O)N1 (stereo not shown) [Compound 2]
DC50 [1]: < 100 nM
Dmax [1]: 50 to 75%
pIC50 ([2]; Homo sapiens): 7.00 to 7.60

C=CCn1c(=O)c2cnc(Nc3ccc(C4CCN(CC5CCN(c6ccc7c(C8CCC(=O)NC8=O)nn(C)c7c6)CC5)CC4)cc3)nc2n1-c1cccc(C(C)(C)O)n1 (stereo not shown) [Compound 111]
DC50 [1]: < 100 nM
Dmax [1]: 50 to 75%
pIC50 ([2]; Homo sapiens): ≥ 7.60

C=CCn1c(=O)c2cnc(Nc3ccc(N4CCC(CN5CCN(c6ccc(NC7CCC(=O)NC7=O)cc6F)CC5)CC4)cc3)nc2n1-c1cccc(C(C)(C)O)n1 (single isomer, unassigned) [Compound 100-B]
DC50 [1]: < 100 nM
pIC50 [2]: ≥ 7.60

C=CCn1c(=O)c2cnc(Nc3ccc(N4CCN(CC5CCN(c6ccc(NC7CCC(=O)NC7=O)cc6F)CC5)CC4)nc3)nc2n1-c1ccc2c(n1)[C@@](O)(CC)CC2 (stereo partly shown) [Compound 187]
DC50 [1]: < 100 nM
Dmax [1]: > 75%
pIC50 ([2]; Homo sapiens): ≥ 7.60

C=CCn1c(=O)c2cnc(Nc3ccc(N4CCN(CC5CCN(c6ncc(NC7CCC(=O)NC7=O)cc6F)CC5)[C@@H](C)C4)cc3)nc2n1-c1ccc2c(n1)[C@@](O)(CC)CC2 (stereo partly shown) [Compound 192]
DC50 [1]: < 100 nM
Dmax [1]: > 75%
pIC50 ([2]; Homo sapiens): ≥ 7.60

C=CCn1c(=O)c2cnc(Nc3ccc(N4CCC(CN5CCN(c6ccc(NC7CCC(=O)NC7=O)cc6F)CC5)CC4)cc3)nc2n1-c1ccc2c(n1)[C@@](O)(CC)CC2 (stereo partly shown) [Compound 119]
DC50 [1]: < 100 nM
Dmax [1]: > 75%
pIC50 ([2]; Homo sapiens): ≥ 7.60

C=CCn1c(=O)c2cnc(Nc3ccc(C4CCN(CC5CN(c6ccc7c(c6)C(=O)N(C6CCC(=O)NC6=O)C7=O)C5)CC4)cc3)nc2n1-c1cccc(C(C)(C)O)n1 (stereo not shown) [Compound 9]
DC50 [1]: < 100 nM
Dmax [1]: 50 to 75%
pIC50 ([2]; Homo sapiens): 7.00 to 7.60

C=CCn1c(=O)c2cnc(Nc3ccc(N4CCC(CN5CCC(c6ccc7c(N8CCC(=O)NC8=O)nn(C)c7c6)CC5)CC4)cc3)nc2n1-c1cccc(C(C)(C)O)n1 [Compound 95]
DC50 [1]: < 100 nM
Dmax [1]: > 75%
pIC50 ([2]; Homo sapiens): ≥ 7.60

C=CCn1c(=O)c2cnc(Nc3ccc(N4CCN(CC5CCN(c6ccc(NC7CCC(=O)NC7=O)cn6)CC5)CC4)cc3)nc2n1-c1cccc(C(C)(C)O)n1 (stereo not shown) [Compound 87]
DC50 [1]: < 100 nM
Dmax [1]: > 75%
pIC50 ([2]; Homo sapiens): ≥ 7.60

C=CCn1c(=O)c2cnc(Nc3ccc(N4CCC(CN5CCN(c6cccc7c(C8CCC(=O)NC8=O)nn(C)c67)CC5)CC4)cc3)nc2n1-c1cccc(C(C)(C)O)n1 (stereo not shown) [Compound 144]
DC50 [1]: < 100 nM
Dmax [1]: > 75%
pIC50 ([2]; Homo sapiens): ≥ 7.60

C=CCn1c(=O)c2cnc(Nc3ccc(N4CCC(CN5CCC(c6ccc7c(C8CCC(=O)NC8=O)nn(C)c7c6)CC5)CC4)cc3)nc2n1-c1cccc(C(C)(C)O)n1 (stereo not shown) [Compound 96]
DC50 [1]: < 100 nM
Dmax [1]: 50 to 75%
pIC50 ([2]; Homo sapiens): ≥ 7.60

C=CCn1c(=O)c2cnc(Nc3ccc(C4CCN(CC5CCN(c6ccc(NC7CCC(=O)NC7=O)cc6F)CC5)CC4)cc3)nc2n1-c1ccc2c(n1)[C@@](O)(CC)CC2 (stereo partly shown) [Compound 109]
DC50 [1]: < 100 nM
Dmax [1]: 50 to 75%
pIC50 ([2]; Homo sapiens): ≥ 7.60
